Laboratory results as given in PMC11284600, “Many human pharmaceuticals are weak inhibitors of the cytochrome P450 system in rainbow trout (Oncorhynchus mykiss) liver S9 fractions” (Frontiers in Toxicology, 2024).
Structures can show the parent of a compound that is named as a salt. Where two headings read alike, the source gives them in different places. Blank lines part the entries; values can stand above or below the compound they belong to.

Tests used:
[1] = parameters: method as in PubChem; conditions: (e) empirical; ref PubChem; cited from earlier work
Human CYP3A = conditions: cited from earlier work; for Human CYP3A interactions: substrate status: ref Drugbank unless otherwise stated (Dragovic et al., 2013; Niwa et al., 2005)
[2] = tested on: CYP1A-like ethoxyresorufin O-deethylase (EROD) activity; assay: in vitro; conditions: both, Christophersen, Bornhoeved, rainbow trout (Oncorhynchus mykiss); for inhibition at 10 min: pH 7.8
Description: (§1) Commercially available rainbow trout (O. mykiss) liver S9 fractions were used as the enzyme source for the in vitro P450 inhibition assays (RTL-S9, total protein concentration 20 mg/mL, Primacyt Cell Culture Technology GmbH).
(§2) The inhibitory impacts of the test substances toward the rainbow trout liver P450 system in vitro were assessed based on EROD and BFCOD as the marker reactions for CYP1A- and CYP3A-like isoenzyme activities, respectively. […] In this study, the EROD (CYP1A) and BFCOD (CYP3A) activities were determined using 0.5 mg/mL RT-S9 (total protein) concentration and 1 or 2 mM NADPH, respectively. […] All incubations were performed in duplicate in a total volume of 100 µL of potassium phosphate buffer (0.1 M, pH 7.8), at 11°C ± 1°C on a thermostated orbital shaker (LLG Labware). The reactions were terminated by the addition of 37.5 μL of the quenching solution (0.5 M Trizma base/acetonitrile 20:80, v/v). […] The quantitation of the metabolites (resorufin or HFC) was based on linear regression of the respective standards prepared in the potassium phosphate buffer. Negative control incubations were performed separately without the marker substrate, without cofactors, and without RT-S9 to ensure that the detected fluorescence signals arise from the metabolic conversion of the marker substrates (ER or BFC) into their respective metabolites (resorufin or HFC, respectively).
(§3) In this study, the preincubation was performed using three different protocols A-C (Table 2). In the first protocol, the test substance (each separately at six different concentrations between 0.01 and 500 µM) and RT-S9 were preincubated without any cofactors, and the marker reaction was initiated by the addition of the marker substrate (ER or BFC) and NADPH (Protocol A). This enabled the determination of the inhibitory impact of the parent form of the test substance on the respective marker activity. In the second protocol, the test substance and RT-S9 were preincubated together with NADPH, and the marker reaction was initiated by the addition of the marker substrate (Protocol B). In this manner, the test substance could undergo P450 metabolism already during the preincubation step, which may reduce its concentration and thus the inhibitory impact toward the marker reactions, or result in the formation of reactive or inhibitory metabolites, which typically increases the inhibitory impact compared with the parent form (Protocol A). […] In this manner, the test substance could undergo both P450 and phase II metabolism already during the preincubation step, which may likewise reduce its concentration and inhibitory impact toward the marker reactions, and even help eliminate the possible reactive metabolites via glutathione conjugation. […] Additionally, positive control incubations of the marker substrates (ER or BFC) without the test substance (zero inhibitor concentration) were included in each series to determine the basal EROD or BFCOD activity in RT-S9.
(§4) The residual solvent concentration was kept constant at all inhibitor concentrations, including zero, to eliminate its impact on the IC50 concentrations derived from the empirical data. The IC50 shifts for Protocols B and C were calculated according to Eq. 2: IC50 shift=IC50,Protocol A/IC50,Protocol B or Protocol C (2)
(§5) In this manner, the impact of the test substance’s own metabolism (during the preincubation step) on the inhibitory impact could be evaluated.

[3] = biological target: T1, CYP3A-like BFCOD activity (Oncorhynchus mykiss, UniProt O42563); assay: BFCOD inhibition in RT-S9 (IC50 shift assay); conditions: both, Christophersen, Bornhoeved, rainbow trout (Oncorhynchus mykiss)
T1 sequence (O42563 1-518): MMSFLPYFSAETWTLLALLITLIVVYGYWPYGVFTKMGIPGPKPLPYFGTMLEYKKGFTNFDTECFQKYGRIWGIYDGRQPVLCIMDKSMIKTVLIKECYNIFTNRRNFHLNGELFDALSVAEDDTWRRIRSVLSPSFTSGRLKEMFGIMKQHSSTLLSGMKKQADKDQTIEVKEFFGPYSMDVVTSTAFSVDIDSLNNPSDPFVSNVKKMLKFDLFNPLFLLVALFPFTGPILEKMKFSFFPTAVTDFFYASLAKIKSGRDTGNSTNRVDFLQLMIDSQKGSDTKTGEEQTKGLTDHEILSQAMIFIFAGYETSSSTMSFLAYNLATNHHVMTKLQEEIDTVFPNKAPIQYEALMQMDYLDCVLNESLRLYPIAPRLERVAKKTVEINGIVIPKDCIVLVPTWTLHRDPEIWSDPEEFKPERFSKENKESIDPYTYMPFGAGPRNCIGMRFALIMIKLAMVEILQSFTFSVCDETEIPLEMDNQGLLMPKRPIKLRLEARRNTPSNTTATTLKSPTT
Description: as §1, §2, §3, §4, §5

[4] = Unbound fraction in RT-S9 by rapid equilibrium dialysis; format: in vitro ADME, rainbow trout (Oncorhynchus mykiss); conditions: 10 µM test substance, 1 mg/mL RT-S9, pH 7.8, 11°C, n = 3, read-out: Unbound fraction (fU,RT-S9)
Description: The unbound (free) fractions of the test substances in RT-S9 (fU,RT-S9) were determined using rapid equilibrium dialysis assay (RED, Thermo Fisher Scientific), which exploits two-compartment inserts separated by a dialysis membrane with a molecular weight cut-off of 8,000 Da. In the RED assay, each test pharmaceutical (10 μM) was incubated in triplicate with RT-S9 (1 mg/mL) in 50 mM potassium phosphate buffer (pH 7.8) in a total volume of 300 µL on one side of the membrane (protein-containing chamber), and 350 μL of the plain phosphate buffer on the other side (protein-free chamber). To reach equilibrium, the samples were incubated on an orbital shaker (C25KC Incubator shaker, New Brunswick Scientific, 120 rpm) at 11°C for 4 h. Next, 50 µL aliquots were collected from both chambers separately and diluted by adding 50 µL of the plain buffer (to the protein-containing sample) or 50 μL of 1 mg/mL RT-S9 in the buffer (to the protein-free sample). Finally, the RT-S9 protein was precipitated by the addition of acetonitrile (+200 μL) to both samples separately, followed by incubation on ice for 30 min and centrifugation (16100 g, 15 min). The test substance concentrations in the supernatants of both samples were determined using liquid chromatography. The instrumentation and the analytical methods used for chromatographic analyses are described in detail in the Supplementary Table S2. The unbound fractions of the test substances in RT-S9 (fU,RT-S9) were calculated according to Eq. 3: fU,RT−S9=1− PC−PF/PC (3) where [PC] and [PF] are the test substance concentrations in the samples collected from protein-containing and protein-free chambers, respectively. To account for the test substance’s binding to the RT-S9, the nominal IC50 values were corrected for unbound fraction (fU,RT-S9) according to Eq. 4: Unbound IC50=Nominal IC50×fU,RT−S9 (4)

[5] = biological target: T2, CYP3A-like 7-benzyloxy-4-trifluoromethylcoumarin O-debenzylase (BFCOD) activity in rainbow trout liver S9 fractions (Oncorhynchus mykiss, UniProt O42563); assay: BFCOD inhibition in RT-S9 (IC50 shift assay); conditions: within the tested concentration range
T2 sequence (O42563 1-518): T1 sequence (O42563 1-518)
Description: as §1, §2, §3, §4, §5

[6] = tested on: CYP1A-like ethoxyresorufin O-deethylase (EROD) activity in rainbow trout liver S9 fractions; assay: EROD inhibition in RT-S9 (IC50 shift assay)
Description: as §1, §2, §3, §4, §5

Human CYP1A = conditions: ref Drugbank unless otherwise stated (Dragovic et al., 2013; Conard and Ober 1984; Niwa et al., 2005); cited from earlier work
CYP1A-like EROD activity = assay: in vitro; conditions: both, Christophersen, Bornhoeved, rainbow trout (Oncorhynchus mykiss)
Description: as §1, §2, §3, §4, §5

[7] = pH 7.8, EROD inhibition in RT-S9, Nominal IC50
[8] = pH 7.8, EROD inhibition in RT-S9, Unbound IC50
[9] = s9, pH 7.8, BFCOD inhibition in RT-S9, Nominal IC50, Protocol B: 30 min preincubation w/NADPH (2 mM)
[10] = s9, pH 7.8, BFCOD inhibition in RT-S9, Nominal IC50, Protocol C: 30 min preincubation w/all cofactors (NADPH, UDPGA, PAPS, glutathione)
[11] = rainbow trout liver S9 fractions (RT-S9)

Structure (SMILES): CC(C)c1c(C(=O)Nc2ccccc2)c(-c2ccccc2)c(-c2ccc(F)cc2)n1CC[C@@H](O)C[C@@H](O)CC(=O)O [Atorvastatin, atorvastatin calcium trihydrate]
LogKOW [1]: 6.36 (e)

Structure (SMILES): CN1CCCC(n2nc(Cc3ccc(Cl)cc3)c3ccccc3c2=O)CC1 (stereo not drawn) [Azelastine, azelastine hydrochloride]
Human CYP3A interactions: inhibitor status (Human CYP3A; ref Drugbank unless otherwise stated (Cohen et al., 2000; Guo et al., 1997; Niwa et al., 2005)): Inhibitor (m)
inhibition at 10 min [2]: > 50%
IC50 at 10 min [2, 7]: 28 ± 2 µM
IC50 at 10 min [2, 8]: 3.8 ± 0.5 µM
IC50 at 20 min ([3]; s9, pH 7.8): > 100 µM
inhibition at 20 min ([3]; s9, pH 7.8): ≤ 50%
IC50 at 20 min [3, 9]: > 100 µM
IC50 at 20 min [3, 10]: > 100 µM
fraction unbound at 4 h, 10 µM [4, 11]: 0.14 ± 0.01

Structure (SMILES): CCNC(=O)CCC/C=C\C[C@@H]1[C@@H](/C=C/[C@@H](O)CCc2ccccc2)[C@H](O)C[C@@H]1O [Bimatoprost, bimatoprost]
Human CYP3A interactions: substrate status (Human CYP3A): Substrate
LogKOW [1]: 3.2 (e)
BFCOD inhibition in RT-S9 (in words) [5]: did not significantly inhibit

Structure (SMILES): Cc1ncsc1CCCl [Clomethiazole, clomethiazole hydrochloride]
Human CYP3A interactions: substrate status (Human CYP3A): Substrate
EROD inhibition in RT-S9 (in words) ([6]; within the tested concentration range): did not significantly inhibit
EROD inhibition in RT-S9 (in words) ([6]; within the tested concentration range, listed as Chlomethiazole): no significant EROD inhibition
BFCOD inhibition in RT-S9 (in words) [5]: did not significantly inhibit
fraction unbound at 4 h, 10 µM ([4]; rainbow trout (Oncorhynchus mykiss)): > 0.9

Structure (SMILES): CN1CCN(C2=Nc3cc(Cl)ccc3Nc3ccccc32)CC1 [Clozapine, clozapine]
LogKOW [1]: 3.23 (e)
inhibition at 10 min [2]: > 50%
IC50 at 10 min [2, 7]: 46 ± 9 µM
IC50 at 10 min [2, 8]: ~10 µM
inhibition at 20 min ([3]; s9, pH 7.8): ≤ 50%
IC50 at 20 min ([3]; s9, pH 7.8, BFCOD inhibition in RT-S9, Nominal IC50, Protocol A: 30 min preincubation without cofactors, extrapolated): > 100 µM
IC50 at 20 min [3, 9]: > 100 µM
IC50 at 20 min [3, 10]: > 100 µM
IC50 at 20 min ([3]; s9, pH 7.8, BFCOD inhibition in RT-S9, Unbound IC50, nominal IC50 of Protocol A × fU,RT-S9 (Eq. 4)): 10 to 30 µM
fraction unbound at 4 h, 10 µM [4, 11]: 0.21 ± 0.05
Human CYP1A interactions: substrate status (Human CYP1A): Substrate

Structure (SMILES): Clc1ccc2c(c1)CCc1cccnc1C2=C1CCNCC1 [Desloratadine, desloratadine]
fraction unbound at 4 h, 10 µM [4, 11]: 0.15 ± 0.03

fraction unbound at 4 h, 10 µM ([4]; rainbow trout (Oncorhynchus mykiss), rainbow trout liver S9 fractions (RT-S9)): > 0.9
fraction unbound at 4 h, 10 µM [4, 11]: 0.91 ± 0.42
Structure (SMILES): CCN(CC)C(=S)SSC(=S)N(CC)CC [Disulfiram, disulfiram]
LogKOW [1]: 3.88 (e)

Structure (SMILES): COc1ccc2nc([S@@+]([O-])Cc3ncc(C)c(OC)c3C)[nH]c2c1 [Esomeprazole, esomeprazole magnesium hydrate]
Human CYP3A interactions: substrate status (Human CYP3A): Substrate
inhibition at 10 min [2]: > 50%
IC50 at 10 min [2, 8]: 3 ± 0.8 µM
IC50 shift at 10 min (CYP1A-like EROD activity; s9, pH 7.8, EROD inhibition in RT-S9, IC50 shift (A/B)): 2.3 ± 0.7
IC50 shift at 10 min (CYP1A-like EROD activity; s9, pH 7.8, EROD inhibition in RT-S9, IC50 shift (A/C)): 1.7
IC50 at 20 min ([3]; s9, pH 7.8): > 100 µM
inhibition at 20 min ([3]; s9, pH 7.8): ≤ 50%
IC50 shift at 20 min ([3]; s9, pH 7.8, BFCOD inhibition in RT-S9, IC50 shift (A/B), IC50 Protocol A / IC50 Protocol B, TDI if ≥1.5): 1.2 ± 0.2
IC50 shift at 20 min ([3]; s9, pH 7.8, BFCOD inhibition in RT-S9, IC50 shift (A/C), IC50 Protocol A / IC50 Protocol C): 0.8
IC50 at 20 min [3, 9]: > 100 µM
IC50 at 20 min [3, 10]: > 100 µM
fraction unbound at 4 h, 10 µM [4, 11]: 0.36 ± 0.08

fraction unbound at 4 h, 10 µM [4, 11]: 0.27 ± 0.05
Structure (SMILES): Cc1ccccc1C(OCCN(C)C)c1ccccc1 (stereo not drawn) [Orphenadrine, orphenadrine citrate]
LogKOW [1]: 3.77 (e)

Structure (SMILES): COc1cc2nc(N3CCN(C(=O)c4ccco4)CC3)nc(N)c2cc1OC [Prazosin, prazosin hydrochloride]
inhibition at 10 min [2]: > 50%
IC50 at 10 min [2, 7]: 21 ± 2 µM
EROD inhibition in RT-S9 (in words) [6]: inhibited selectively only EROD activity
IC50 at 20 min ([3]; s9, pH 7.8): > 25 µM

fraction unbound at 4 h, 10 µM [4, 11]: 0.24 ± 0.06
Structure (SMILES): OCCOCCN1CCN(C2=Nc3ccccc3Sc3ccccc32)CC1 [Quetiapine, quetiapine hemihumarate]
LogKOW [1]: 2.81 (e)

Structure (SMILES): CCN1CCCC1CNC(=O)c1cc(S(N)(=O)=O)ccc1OC (stereo not drawn) [Sulpiride, sulpiride]
BFCOD inhibition in RT-S9 (in words) [5]: did not significantly inhibit
